According to US12433903B2 (priority 2021, dated 2025):

How the values were obtained:
all the UGTs combined = assay: UGT reaction phenotyping, all the UGTs combined; assay type: in vitro ADME, Human
Text: Experimental Summary: UGT Reaction Phenotyping (7 Isoforms).

rUGT1A9 = biological target: T1, rUGT1A9 (Homo sapiens, UniProt O60656); assay: Inhibition of CBG glucuronidation by Compound 1, rUGT1A9; assay type: in vitro ADME; conditions: for CBG detected (CBG loss) / CBG detected, Percent of control / CBG glucuronide formed / CBG glucuronide formed, Percent of control: 4 min
T1 sequence (O60656 26-530): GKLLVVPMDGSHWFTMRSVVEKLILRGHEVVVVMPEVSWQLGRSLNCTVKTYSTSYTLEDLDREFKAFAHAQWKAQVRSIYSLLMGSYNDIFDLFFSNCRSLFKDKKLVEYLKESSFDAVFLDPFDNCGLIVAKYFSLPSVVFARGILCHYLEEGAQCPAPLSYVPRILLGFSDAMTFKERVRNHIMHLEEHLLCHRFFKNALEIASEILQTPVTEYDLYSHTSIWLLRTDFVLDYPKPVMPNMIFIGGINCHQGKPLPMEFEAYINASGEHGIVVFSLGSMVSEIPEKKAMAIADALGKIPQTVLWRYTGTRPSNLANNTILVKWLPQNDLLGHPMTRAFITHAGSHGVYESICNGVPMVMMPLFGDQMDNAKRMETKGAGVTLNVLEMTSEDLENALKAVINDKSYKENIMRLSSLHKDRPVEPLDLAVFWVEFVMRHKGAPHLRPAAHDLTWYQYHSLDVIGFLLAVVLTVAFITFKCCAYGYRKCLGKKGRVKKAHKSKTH
Method: The purpose of this experiment was to determine if Compound 1 can inhibit the glucuronidation of CBG, as both are substrates for the two major isoforms responsible for CBG glucuronidation.
The ability of Compound 1 to inhibit the metabolism of CBG by UGT1A9 and UGT2B7 enzymes was investigated to ascertain the IC50 values for direct inhibition. The incubation conditions (substrate concentration, incubation time and protein concentration) were determined in Part 2 of the protocol such that CBG metabolism remains near initial rate conditions (e.g., 20-30% substrate loss).
Preliminary experiments were conducted in Part I of the protocol, first to establish the HPLC/MS/MS bioanalytical methods for CBG and CBG glucuronide. […] The second set of preliminary experiments (Part 2), as mentioned, were conducted to optimize the incubation conditions as described above. Incubations (at 37° C.) contained Tris-HCl buffer (100 mM, pH 7.7), MgCl2 (10 mM), EDTA (1 mM, pH 7.4) and UDP-glucuronic acid (UDPGA, 10 mM). CBG was added to each incubation in DMSO such that the final percent of DMSO was 1% v/v, or less. Reactions were terminated by the addition of an equal volume of stop reagent, acetonitrile containing an internal standard. The samples were centrifuged (e.g., 920 RCF for 10 minutes at 10° C.), and the supernatant fractions were analyzed by LC-MS/MS to determine the amount of CBG remaining and formation of one metabolite (CBG glucuronide).
To examine its ability to act as a direct inhibitor of the above listed enzymes, Compound 1 was be added to recombinant human UGT enzyme together with CBG. Reactions were initiated with UDPGA and were carried out in duplicate. For all assays, reactions were terminated by the addition of acetonitrile with or without 2% v/v formic acid, including the internal standard.
Authentic metabolite reference standards were used for quantitation of the probe substrate metabolites and as internal standards. Based on the information obtained in the Part 2 experiments, the following table summarizes the experiments performed, assessing the inhibitory effects of Compound 1 was conducted as follows:
The amounts of CBG present at the end of the incubation periods was determined. For inhibition to have occurred, the amounts of CBG present at the end of the incubation period needed to increase, and the amounts of glucuronide formed needed to decrease.

[1] = tested on: p-cMyc(S62), cMyc, p-AKT(S473), AKT, p-ERK(T202/Y204), ERK in SW620, HCT15, HCT116 cells; assay: Target engagement by Western blot in colon cancer cell lines; assay type: cell-based; conditions: HCT 116 cells; 10-80 μM, 3 hours; with a dose effect
Method: For Western blot, the compounds were tested at 4 concentrations for 3 hours on 3 colon cancer cell lines. The compounds, concentrations, colon cancer cell line panel, and antibodies panel tested are the following: • CBG: 0 μM, 10 μM, 20 μM, 40 μM, and 80 μM. • Compound 1: 0 μM, 10 μM, 20 μM, 40 μM, and 80 μM. • Compound 2: 0 μM, 10 μM, 20 μM, 40 μM, and 80 μM. • Colon cancer cell line panel: SW620, HCT15, HCT116 • Antibodies panel: p-cMYC(S62), cMyc, p-AKT(S473), AKT, p-ERK(T202/Y204), ERK Methods
Evaluation of target engagement was performed to determine the expression of specific marker protein expression and underlying signaling pathways with Western blot.
Western blot. Whole cell extracts were prepared by incubating cell pellets in IP lysis buffer supplemented with protease and phosphatase inhibitors (Roche). Isolated protein was quantified by Pierce BCA Protein assay (ThermoFisher). Equal quantities of protein were separated by 4-15% SDS-PAGE electrophoresis gels and transferred onto nitrocellulose membranes. Membranes was blocked with 5% nonfat milk in Tris-buffered saline-Tween buffer. […]

SMILES: CCCCCc1cc(O)c(C/C=C(\C)CCC=C(C)C)c(O)c1 [CBG, cannabigerol]
- activity of UGT2B7 relative to UGT1A9 (all the UGTs combined): approximately 1/10
- share of the activity for all the UGTs combined represented by UGT1A9 (all the UGTs combined): ~80%

SMILES: CCCCCc1cc(O)c(C/C=C(\C)CCC=C(C)C)c(OC)c1 [Compound 1, (E)-2-(3,7-dimethylocta-2,6-dien-1-yl)-3-methoxy-5-pentylphenol]
- CBG detected (CBG loss) (rUGT1A9; 10 μM CBG + 0.01 μM Compound 1): 1250 pmol
- CBG detected, Percent of control (rUGT1A9; 10 μM CBG + 0.01 μM Compound 1): 109
- CBG glucuronide formed (rUGT1A9; 10 μM CBG + 0.01 μM Compound 1): 350000 area ratio
- CBG glucuronide formed, Percent of control (rUGT1A9; 10 μM CBG + 0.01 μM Compound 1): 94.4
- CBG detected (CBG loss) (rUGT1A9; 10 μM CBG + 0.03 μM Compound 1): 1250 pmol
- CBG detected, Percent of control (rUGT1A9; 10 μM CBG + 0.03 μM Compound 1): 110
- CBG glucuronide formed (rUGT1A9; 10 μM CBG + 0.03 μM Compound 1): 360000 area ratio
- CBG glucuronide formed, Percent of control (rUGT1A9; 10 μM CBG + 0.03 μM Compound 1): 97.1
- CBG detected (CBG loss) (rUGT1A9; 10 μM CBG + 0.1 μM Compound 1): 1280 pmol
- CBG detected, Percent of control (rUGT1A9; 10 μM CBG + 0.1 μM Compound 1): 112
- CBG glucuronide formed, Percent of control (rUGT1A9; 10 μM CBG + 0.1 μM Compound 1): 92.0
- CBG detected (CBG loss) (rUGT1A9; 10 μM CBG + 0.3 μM Compound 1): 1300 pmol
- CBG detected, Percent of control (rUGT1A9; 10 μM CBG + 0.3 μM Compound 1): 114
- CBG glucuronide formed (rUGT1A9; 10 μM CBG + 0.3 μM Compound 1): 350000 area ratio
- CBG glucuronide formed, Percent of control (rUGT1A9; 10 μM CBG + 0.3 μM Compound 1): 94.4
- CBG detected (CBG loss) (rUGT1A9; 10 μM CBG + 1 μM Compound 1): 1210 pmol
- CBG detected, Percent of control (rUGT1A9; 10 μM CBG + 1 μM Compound 1): 106
- CBG glucuronide formed, Percent of control (rUGT1A9; 10 μM CBG + 1 μM Compound 1): 92.6
- CBG detected (CBG loss) (rUGT1A9; 10 μM CBG + 3 μM Compound 1): 1200 pmol
- CBG detected, Percent of control (rUGT1A9; 10 μM CBG + 3 μM Compound 1): 105
- CBG glucuronide formed, Percent of control (rUGT1A9; 10 μM CBG + 3 μM Compound 1): 93.6
- CBG detected (CBG loss) (rUGT1A9; 10 μM CBG + 10 μM Compound 1): 1140 pmol
- CBG detected, Percent of control (rUGT1A9; 10 μM CBG + 10 μM Compound 1): 99.8
- CBG glucuronide formed, Percent of control (rUGT1A9; 10 μM CBG + 10 μM Compound 1): 92.8
- metabolism of CBG in the presence of Compound 1 (in words) (rUGT1A9; 0.01-10 μM Compound 1, CBG disappearance or glucuronide formation): essentially unchanged
- pAKT(S473) (Western blot) [1]: down-regulated
